Test results reported in ChEMBL document CHEMBL4715917 (Bioorg Med Chem, 2021).

How the values were obtained:
A549 = assay: Cytotoxicity against human A549 cells harboring wild type EGFR assessed as reduction in cell viability after 72 hrs by MTT assay; assay type: functional, cell-based; details: A549, 72 h
NCI-H1975 = assay: Cytotoxicity against human NCI-H1975 cells harboring T790M/L858R mutant assessed as reduction in cell viability after 72 hrs by MTT assay; assay type: functional, cell-based; details: NCI-H1975, 72 h
[1] = molecular target: Epidermal growth factor receptor (Homo sapiens, UniProt P00533)
Description: Inhibition of recombinant wild type EGFR (696 to C terminal end) (unknown origin) using poly (Glu-Tyr) as substrate preincubated for 30 mins followed by substrate addition and measured after 30 mins by ELISA

[2] = molecular target: Epidermal growth factor receptor (Homo sapiens, UniProt P00533, L858R/T790M)
Sequence of Epidermal growth factor receptor (Homo sapiens, UniProt P00533, L858R/T790M) (P00533 25-1210 T790M/L858R limits assumed): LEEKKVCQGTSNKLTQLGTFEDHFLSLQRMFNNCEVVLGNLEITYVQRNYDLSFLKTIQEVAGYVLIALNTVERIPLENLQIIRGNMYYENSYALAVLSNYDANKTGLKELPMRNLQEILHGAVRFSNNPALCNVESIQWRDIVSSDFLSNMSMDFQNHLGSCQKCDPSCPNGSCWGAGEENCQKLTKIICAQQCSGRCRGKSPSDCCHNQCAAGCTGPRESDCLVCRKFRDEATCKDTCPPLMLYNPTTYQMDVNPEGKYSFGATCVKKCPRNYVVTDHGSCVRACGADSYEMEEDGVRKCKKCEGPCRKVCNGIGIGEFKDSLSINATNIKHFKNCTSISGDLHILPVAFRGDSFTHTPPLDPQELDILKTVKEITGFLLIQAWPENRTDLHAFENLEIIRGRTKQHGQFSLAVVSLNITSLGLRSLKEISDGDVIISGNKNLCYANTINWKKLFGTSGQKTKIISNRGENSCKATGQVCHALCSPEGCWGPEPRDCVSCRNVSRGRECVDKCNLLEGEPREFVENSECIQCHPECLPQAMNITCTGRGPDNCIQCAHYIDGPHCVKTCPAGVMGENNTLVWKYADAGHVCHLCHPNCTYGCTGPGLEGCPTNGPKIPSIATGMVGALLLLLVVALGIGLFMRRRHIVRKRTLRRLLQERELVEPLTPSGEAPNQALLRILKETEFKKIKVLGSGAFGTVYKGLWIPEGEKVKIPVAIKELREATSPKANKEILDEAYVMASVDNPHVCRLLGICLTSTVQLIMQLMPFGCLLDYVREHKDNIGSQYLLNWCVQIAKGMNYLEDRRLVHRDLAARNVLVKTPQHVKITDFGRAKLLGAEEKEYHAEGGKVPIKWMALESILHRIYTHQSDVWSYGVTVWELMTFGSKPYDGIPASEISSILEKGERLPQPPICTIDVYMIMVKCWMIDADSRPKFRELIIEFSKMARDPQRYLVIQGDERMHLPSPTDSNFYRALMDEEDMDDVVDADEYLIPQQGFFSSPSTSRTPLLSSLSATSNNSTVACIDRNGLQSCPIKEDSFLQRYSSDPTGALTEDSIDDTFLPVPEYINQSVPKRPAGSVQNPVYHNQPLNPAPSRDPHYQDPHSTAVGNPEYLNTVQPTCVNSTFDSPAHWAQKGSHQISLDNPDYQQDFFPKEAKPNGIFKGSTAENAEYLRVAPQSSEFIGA

Sequence of Epidermal growth factor receptor (Homo sapiens, UniProt P00533) (P00533 whole entry): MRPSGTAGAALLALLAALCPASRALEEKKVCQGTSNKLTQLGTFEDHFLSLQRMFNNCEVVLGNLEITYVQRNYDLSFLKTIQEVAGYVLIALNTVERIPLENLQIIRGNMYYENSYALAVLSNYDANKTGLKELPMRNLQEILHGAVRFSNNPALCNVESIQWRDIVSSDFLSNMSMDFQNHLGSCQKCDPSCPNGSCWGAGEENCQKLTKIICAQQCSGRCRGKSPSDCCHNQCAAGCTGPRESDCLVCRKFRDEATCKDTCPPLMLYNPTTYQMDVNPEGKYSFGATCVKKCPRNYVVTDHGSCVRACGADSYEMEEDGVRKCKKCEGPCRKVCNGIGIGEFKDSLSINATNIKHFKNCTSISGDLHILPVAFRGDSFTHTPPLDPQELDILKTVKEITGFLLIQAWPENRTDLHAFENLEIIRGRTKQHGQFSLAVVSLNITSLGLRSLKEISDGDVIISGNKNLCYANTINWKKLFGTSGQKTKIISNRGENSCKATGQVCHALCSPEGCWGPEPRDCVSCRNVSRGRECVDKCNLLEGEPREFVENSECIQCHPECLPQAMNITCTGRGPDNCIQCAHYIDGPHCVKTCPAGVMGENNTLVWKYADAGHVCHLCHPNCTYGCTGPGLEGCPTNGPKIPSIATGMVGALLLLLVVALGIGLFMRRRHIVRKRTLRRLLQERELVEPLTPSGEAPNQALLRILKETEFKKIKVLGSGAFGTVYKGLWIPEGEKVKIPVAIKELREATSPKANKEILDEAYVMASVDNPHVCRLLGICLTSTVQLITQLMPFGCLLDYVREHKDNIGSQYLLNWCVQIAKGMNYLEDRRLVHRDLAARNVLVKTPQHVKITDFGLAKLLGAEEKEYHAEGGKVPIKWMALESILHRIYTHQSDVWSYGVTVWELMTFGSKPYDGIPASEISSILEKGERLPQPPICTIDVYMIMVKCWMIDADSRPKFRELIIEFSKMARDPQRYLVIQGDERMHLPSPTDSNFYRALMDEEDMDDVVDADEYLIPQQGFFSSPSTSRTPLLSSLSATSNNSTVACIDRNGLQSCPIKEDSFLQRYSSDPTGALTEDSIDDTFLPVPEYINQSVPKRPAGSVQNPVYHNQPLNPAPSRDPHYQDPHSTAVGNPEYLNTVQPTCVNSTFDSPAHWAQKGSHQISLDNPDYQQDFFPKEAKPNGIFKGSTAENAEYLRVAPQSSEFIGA

Question: How did the IC50 (A549) turn out when COc1ccc(-c2c3c4cc(OC)c(O)cc4[nH]c(=O)c3n3ccc4cc(O)c(OC)cc4c23)cc1O was run?
Answer: 15.5 nM

Question: And the IC50 (NCI-H1975)?
Answer: 1.9 nM

Question: What does the source list for COc1ccc(-c2c3c4cc(OC)c(OCCCN(C)C)cc4[nH]c(=O)c3n3ccc4cc(O)c(OC)cc4c23)cc1O?
Answer: IC50 [1]: 15.5 nM; IC50 [2]: 5.7 nM; IC50 (A549): 1040 nM; IC50 (NCI-H1975): 350 nM

Question: How did the IC50 [1] turn out when COc1ccc(-c2c3c4cc(OCCCN(C)C)c(O)cc4[nH]c(=O)c3n3ccc4cc(O)c(OC)cc4c23)cc1O was run?
Answer: 23.6 nM

Question: What about the IC50 [2] of the same compound?
Answer: 16.6 nM

Question: For COc1ccc(-c2c3c4cc(O)c(OCCCN(C)C)cc4[nH]c(=O)c3n3ccc4cc(O)c(OC)cc4c23)cc1O, which IC50 [1] is on record?
Answer: 24.7 nM

Question: What about the IC50 [2] of the same compound?
Answer: 10.2 nM

Question: With COc1ccc(-c2c3c4cc(OCCCN(C)C)c(OCCCN(C)C)cc4[nH]c(=O)c3n3ccc4cc(O)c(OC)cc4c23)cc1O as the compound, how does the IC50 [1] read?
Answer: 4.6 nM

Question: And the IC50 [2]?
Answer: 1.7 nM

Question: And the IC50 (A549)?
Answer: 2040 nM

Question: What about the IC50 (NCI-H1975) of the same compound?
Answer: 1360 nM

Question: Which IC50 [1] does the source give for COc1ccc(-c2c3c4cc(OC)c(OC)cc4[nH]c(=O)c3n3ccc4cc(O)c(OC)cc4c23)cc1O here?
Answer: 259 nM

Question: And the IC50 [2]?
Answer: 65.3 nM
